The text below walks through data of patent US11993591B2, “Chromen-4-one derivatives for the treatment and prophylaxis of hepatitis B virus disease” (Hoffmann-La Roche Inc., priority 2018, dated 2024).

The structures appear in SMILES notation.

For assay [1], the system named is HBV (extracellular HBsAg) in primary human hepatocytes. As to the kind of experiment: Cryopreserved Primary Human Hepatocytes (PHH) HBV infection assay. It is filed as cell-based. The settings on record: Hepatitis B virus, Hepatocyte, 216 h; extracellular HBsAg (CLIA), HBV-infected cryopreserved PHH, 9 days post-compound treatment. On the procedure: This assay is used to confirm the anti-HBV effect of the compounds in HBV PHH infection assay. Cryopreserved PHH (BioreclamationIVT, Lot YJM) was thawed at 37° C. and gently transferred into pre-warmed InVitroGRO HT medium (BioreclamationIVT, Cat. S03317).
The mixture was centrifuged at 70 relative centrifugal force (RCF) for 3 mins at RT, and the supernatant was discarded. Pre-warmed InVitroGRO CP medium (BioreclamationIVT, Cat #S03316) was added to the cell pellet to gently re-suspend cells. The cells were seeded at the density of 5.8×10^4 cells per well to collagen I coated 96-well plate (Gibco, Cat. A1142803) with the InVitroGRO CP medium. All plates were incubated at 37° C. with 5% CO2 and 85% humidity.
At 20 hours after plating, the medium was changed to PHH culture medium (Dulbecco's Modified Eagle Medium (DMEM)/F12 (1:1) (Gibco, Cat. 11320-033), 10% fetal bovine serum (Gibco Cat. 10099141), 100 U/mL penicillin, 100 μg/mL streptomycin (Gibco, Cat. 151401-122), […] (Invitrogen Cat. PHG0311L), 20 ng/mL dexamethasone (Sigma, Cat. D4902) and 250 ng/mL human recombinant insulin (Gibco, Cat. 12585-014)). And the cells were incubated at 37° C. with 5% CO2 and 85% humidity for 4 hours. The medium was then changed to pre-warmed PHH culture medium containing 4% polyethylene glycol (PEG) MW8000 (Sigma, Cat. P1458-50ML) and 1% DMSO (Sigma, Cat. D2650). 5.8×10^6 genomic equivalents of HBV were added into the medium.
At 24 hours post-infection, the cells were gently washed with PBS and refreshed with PHH culture medium supplemented with 1% DMSO, and 0.25 mg/mL Matrix gel (Corning, Cat. 356237) at 200 μL per well. All plates were immediately placed in at 37° C. CO2 incubator. 24 hours later, serial dilutions of compounds made with DMSO were further diluted with the same culture medium (PHH culture medium supplemented with 1% DMSO and 0.25 mg/mL Matrix gel as described above) before they were added to the cells to reach desired final compound concentrations and 1% DMSO concentration. The medium containing the compounds were refreshed every three days.
At 9 days post-compound treatment, extracellular HBsAg level were measured with Chemiluminescence Immuno Assay (CLIA) kit (Autobio, HBsAg Quantitative CLIA). Extracellular HBV DNA was extracted by MagNA Pure 96 system (Roche) and then determined by quantitative PCR with the following primers and probe: […]
HBsAg IC50 and HBV DNA IC50 values were derived from the dose-response curve using 4 parameter logistic curve fit method.

Assay [2] relates to HBV cccDNA (HBeAg level) in HepDES19 cells. As to the kind of experiment: Engineered HepDES19 primary screen assay (HBeAg as surrogate marker for cccDNA). Format: cell-based. The conditions noted are these: Hepatitis B virus, HepDES19, 120 h. The text has this:
The assay was employed to screen for novel cccDNA inhibitors. HepDES19 is a cccDNA-producing cell line. In this cell line, HBeAg in the cell culture supernatant as surrogate marker, as HBeAg production depends on cccDNA level and activity. HepDES19 is an engineered cell line which contains a 1.1 unit length HBV genome, and pgRNA transcription from the transgene is controlled by Tetracycline (Tet). In the absence of Tet, pgRNA transcription will be induced, but HBV e antigen (HBeAg) could not be produced from this pgRNA due to very short leader sequence before the HBeAg start codon and the start codon is disrupted. Only after cccDNA is formed, the missing leader sequence and start codon mutation would be restored from the 3′-terminal redundancy of pgRNA, and then HBeAg could be synthesized. Therefore, HBeAg could be used as a surrogate marker for cccDNA (Zhou, T. et al., Antiviral Res. (2006), 72(2), 116-124; Guo, H. et al., J. Virol. (2007), 81(22), 12472-12484).
HepDES19 cells were seeded at 2×10^6 cells per T150 flask and cultured with the culture medium (Dulbecco's Modified Eagle Medium: Nutrient Mixture F-12 [DMEM-F12, Gibco Cat. 11320-82], 10% Fetal Bovine Serum [FBS, Clontech Cat. 631101], 0.1 mM Non-Essential Amino Acids Solution [NEAA, Gibco Cat. 11140-050], 50 μg/mL Penicillin-Streptomycin [PS, Invitrogen Cat. 15140-163], 500 μg/mL Geneticin [G418, Invitrogen Cat. 10131-027]) containing 3 μg/mL Tet (Sigma, Cat. 87128) for 5 days. Cells were then seeded at 4×10^6 cells per T150 in the same culture medium as described above in the absence of Tet for 8 days. Cells were then harvested and frozen at density of 2×10^6 cells per mL. For compound testing, the frozen cells were thawed and seeded into 96-well plates at a density of 6×10^4 cells per well. At 24 hours after seeding, half log serial dilutions of compounds made with Dimethyl sulfoxide (DMSO, Sigma, Cat. D2650) were further diluted with the same culture medium as described above before they were added to the cells to reach desired final compound concentrations and 1% DMSO concentration. Plates were then incubated at 37° C. for another 5 days before measurement of HBeAg level and cell viability. Intracellular HBeAg level were measured with enzyme-linked immunosorbent assay (ELISA) kit (Shanghai Kehua Diagnostic Medical Products Co., Ltd). Cell viability was assessed using Cell Counting Kit-8 (Donjindo, Cat. CK04-20). IC50 values were derived from the dose-response curve using 4 parameter logistic curve fit method.
The compounds of the present invention were tested for their capacity to inhibit extracellular HBeAg level as described herein.

As a reminder, the IC50 is the concentration that gives 50% inhibition. The low end stands for higher potency, the high end for lower potency.

For the compound `Cc1cc(Cl)ccc1NC(=O)c1oc2ccc(Cl)cc2c(=O)c1C` [Example 3, 6-chloro-N-(4-chloro-2-methylphenyl)-3-methyl-4-oxo-chromene-2-carboxamide], the half-maximal inhibitory concentration (IC50) is 6.47 µM in assay [1] and 0.64 µM in assay [2]. Taken in the same sequence, the figures for `O=C(c1cc(=O)c2cccc(Cl)c2o1)N1Cc2ccc(Br)cc2C1` [Example 4, 2-(5-bromoisoindoline-2-carbonyl)-8-chloro-chromen-4-one] were 6.58 µM and 3.6 µM.

`O=C(Nc1ccc(Cl)cc1OC1CC(C(=O)O)C1)c1cc(=O)c2cccc(Cl)c2o1` (stereo not drawn) [Example 7, 3-(5-chloro-2-(8-chloro-4-oxo-chromene-2-carboxamido)phenoxy)cyclobutane-1-carboxylic Acid]: the IC50 in assay [1] was determined as 10 µM; in assay [2], 1.66 µM. `O=C(O)c1cccc(CN2CCN(c3cc(=O)c4cccc(Cl)c4o3)CC2)c1` [Example 38, 3-((4-(8-chloro-4-oxo-chromen-2-yl)piperazin-1-yl)methyl)benzoic Acid] had an IC50 in assay [1] of 38.5 µM. On the same count and under the same terms, to `O=C(O)COCCOC1CC2CCC(C1)N2c1cc(=O)c2cccc(Cl)c2o1` (stereo not drawn) [Example 39, 2-(2-((8-(8-chloro-4-oxo-chromen-2-yl)-8-azabicyclo[3.2.1]octan-3-yl)oxy)ethoxy)acetic Acid] belongs 38.5 µM.

Consider `CC1c2ccc(OCCOC3CC(C(=O)O)C3)cc2CCN1c1cc(=O)c2cccc(Cl)c2o1` (stereo not drawn) [Example 40, 3-[2-[[2-(8-chloro-4-oxo-chromen-2-yl)-1-methyl-3,4-dihydro-1H-isoquinolin-6-yl]oxy]ethoxy]cyclobutanecarboxylic Acid], for which the IC50 in assay [1] came to 34.6 µM.
